This assay addresses B56 (Homo sapiens, UniProt Q13362). Description: Isothermal titration calorimetry. It is filed as binding. The settings on record: ITC.

KLpSPIIEDE: the “increase of binding affinity for B56 as the salt concentration is reduced” value (salt concentration 300 mM to 150 mM) is reported as ~ 3.6 fold.

Consider KLpSPIIED, for which, for the setting “668KLpSPIIED675 compared with the 668-676 peptides”, the “reduction of binding to B56 on removing residue 676 altogether” value is on record as ~ 1.7 fold.

These data come from PMC5180209 (Structure (London, England : 1993), 2016).
